Assay results as given in ChEMBL document CHEMBL1201862, “PubChem BioAssay data set” (2004).
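How tested: cells in 96-well plates exposed to compound for 48 hours at five concentrations. At the GI50, growth is halved.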 Calls of active or inactive are those of the source. Cut-off read from the data, not from the text of the source: active = GI50 up to about 1.1 µM and inactive = higher.

Columns and labels:
Assay in all cases: DTP human tumour cell line panel, 48 h
ACHN = test system: ACHN
Malme-3M = test system: Malme-3M
KM12 = test system: KM12
OVCAR-3 = test system: OVCAR-3
SW-620 = test system: SW-620
OVCAR-8 = test system: OVCAR-8
CCRF-CEM = test system: CCRF-CEM
HOP-92 = test system: HOP-92
HCT-116 = test system: HCT-116
SF-539 = test system: SF-539
UACC-257 = test system: UACC-257
UACC-62 = test system: UACC-62
SNB-19 = test system: SNB-19
SK-OV-3 = test system: SK-OV-3
M14 = test system: M14
RPMI-8226 = test system: RPMI-8226
NCI-H23 = test system: NCI-H23
NCI-H522 = test system: NCI-H522
U-251 = test system: U-251
COLO 205 = test system: COLO 205

Measured: GI50

O=C(O)/C(Cc1ccnc2ccccc12)=N\O
inactive: ACHN > 100 µM | Malme-3M > 100 µM | KM12 > 100 µM | OVCAR-3 > 100 µM | SW-620 > 100 µM | OVCAR-8 > 100 µM | CCRF-CEM > 100 µM | HOP-92 > 100 µM | HCT-116 > 100 µM | SF-539 > 100 µM | UACC-257 > 100 µM | UACC-62 > 100 µM | SNB-19 > 100 µM | SK-OV-3 > 100 µM | M14 > 100 µM | RPMI-8226 > 100 µM | NCI-H23 > 100 µM | NCI-H522 > 100 µM | U-251 > 100 µM | COLO 205 > 100 µM

Oc1ccc(NCn2c(=S)sc3ccccc32)cc1
inactive: ACHN > 100 µM | Malme-3M > 100 µM | KM12 > 100 µM | OVCAR-3 97.9 µM | SW-620 42.7 µM | OVCAR-8 > 100 µM | CCRF-CEM 32 µM | HOP-92 33 µM | HCT-116 > 100 µM | SF-539 > 100 µM | UACC-257 > 100 µM | UACC-62 84.5 µM | SNB-19 > 100 µM | SK-OV-3 > 100 µM | M14 > 100 µM | RPMI-8226 26.2 µM | NCI-H23 > 100 µM | NCI-H522 17.7 µM | U-251 > 100 µM | COLO 205 > 100 µM

O=C(OCc1ccccc1)C(Cc1ccccc1)N(Cc1ccccc1)Cc1ccccc1 (stereo not given)
inactive: ACHN 19.5 µM | Malme-3M > 100 µM | KM12 > 100 µM | OVCAR-3 84.7 µM | SW-620 > 100 µM | OVCAR-8 > 100 µM | CCRF-CEM 25.8 µM | HOP-92 > 100 µM | HCT-116 24.1 µM | SF-539 > 100 µM | UACC-257 9.42 µM | UACC-62 80 µM | SNB-19 > 100 µM | SK-OV-3 > 100 µM | M14 > 100 µM | RPMI-8226 37.1 µM | NCI-H23 > 100 µM | NCI-H522 25.7 µM | U-251 27.7 µM | COLO 205 > 100 µM

Cc1cc(C)cc(Sc2c([N+](=O)[O-])ncn2C)c1
inactive: ACHN 26.2 µM | Malme-3M 7.28 µM | KM12 18.9 µM | OVCAR-3 13 µM | SW-620 14 µM | OVCAR-8 12.8 µM | CCRF-CEM 15.6 µM | HOP-92 17.2 µM | HCT-116 13.8 µM | SF-539 6.03 µM | UACC-257 14.2 µM | UACC-62 15.5 µM | SNB-19 25.7 µM | SK-OV-3 23.8 µM | M14 14 µM | RPMI-8226 9.98 µM | NCI-H23 14.8 µM | NCI-H522 6.64 µM | U-251 14.6 µM | COLO 205 12.4 µM
